Assay results as given in paper PMC7763995 (Molecules, 2020).

Experiments:
[1] = system: mouse brain homogenate; test: TBARS assay, spontaneous lipid peroxidation in mouse brain homogenate; conditions: read-out: Inhibition of Spontaneous Lipid Peroxidation in Mice Brain Homogenate, TBARS Assay, IC50
Description: The work was carried out in accordance with the EU Directive 2010/63/EU. Hybrid BDF1 mice (about 6 months old) were sacrificed by decapitation. Each brain was rapidly excised, frozen in liquid nitrogen, and stored at −80°C until use. The brains were thawed and homogenized using a Wisd WiseTis HG-15D homogenizer for 2 min in a buffer (0.01 M PBS, pH 7.4 or 0.1 M Tris-HCl, pH 7.4). Protein concentrations were determined by the Lowry method.
The procedure was performed in accordance with the method of Ohkawa et al. with minor modifications. Briefly, mouse brain homogenate (protein concentration 1 mg/mL) in PBS (0.1 M, pH 7.4) was incubated for 30 min at 37°C with tested conjugates, and the reaction was terminated by addition of 0.4 mL of 17% (w/v) trichloroacetic acid (Sigma-Aldrich). Following centrifugation for 20 min at 1300× g, 0.5 mL of 0.8% (w/v) of TBA (Sigma-Aldrich) was added to 1 mL of supernatant, heated for 30 min at 95°C and then cooled to RT. The optical density of the TBARS, which corresponds to the produced MDA, was measured at 532 nm against a blank using an Agilent Cary 60 UV-Vis spectrophotometer (Agilent, Santa Clara, CA, USA). The MDA concentration was calculated using an extinction coefficient of 1.56 × 10^5 M^−1cm^−1. Trolox and BHT were used as reference antioxidants. Compounds were dissolved in DMSO (Sigma-Aldrich) and tested in a concentration range 0.01–100 μM. All compounds were examined at least in triplicate.

[2] = ABTS radical cation scavenging activity assay; conditions: 1 h incubation
Description: Radical scavenging activity of the compounds was assessed using the ABTS radical decolorization assay with some modifications. ABTS was purchased from Tokyo Chemical Industry Co., Ltd. (Tokyo, Japan), potassium persulfate (dipotassium peroxodisulfate), Trolox (6-hydroxy-2,5,7,8-tetramethychroman-2-carboxylic acid), and HPLC-grade ethanol were obtained from Sigma-Aldrich. Aqueous solutions were prepared using deionized water.
The solution of cation radical ABTS^•+ was produced by incubation of ABTS with potassium persulfate in deionized water for 12–16 h at room temperature in the dark. Radical scavenging capacity of the compounds was analyzed by mixing 10 μL of compound with 240 μL of ABTS^•+ working solution in ethanol (100 μM final concentration). The reaction was monitored for an hour with an interval of 5–10 min. Data are given for 1 h of incubation of compounds with ABTS^•+. The reduction in absorbance was measured spectrophotometrically at 734 nm using a xMark microplate UV/VIS microplate spectrophotometer (Bio-Rad, Hercules, CA, USA).
Ethanol blanks were run in each assay. Values were obtained from three replicates of each sample and three independent experiments. Standard antioxidants Trolox and BHT were used as reference compounds.
Antioxidant capacity as Trolox equivalent (TEAC) values was determined as the ratio between the slopes obtained from the linear correlation of the ABTS radical absorbance with the concentrations of tested compounds and Trolox. […] The compounds were tested in the concentration range of 0.1–100 µM.

CC(C)(C)c1cc(C=NCCNc2c3c(nc4ccccc24)CCCCC3)cc(C(C)(C)C)c1O [Compound 7c, 2,6-Di-tert-butyl-4-{[2-(7,8,9,10-tetrahydro-6H-cyclohepta[b]quinolin-11-ylamino)-ethylimino]-methyl}-phenol]
IC50 [1]: 10.4 ± 0.7 µM | IC50 [2]: 17.8 ± 1.6 µM | ABTS^•+-Scavenging Activity, TEAC ([2]; ratio of slopes test compound/Trolox): 1.11 ± 0.04
